Results taken from patent US12409159B2, “3-hydroxybutyrate alone or in combination for use in the treatment of critical care treatment” (KATHOLIEKE UNIVERSITEIT LEUVEN, priority 2016, dated 2025).
Where a name gives a salt, the structure may show the parent alone.

Experiments:
[1] = tested on: mouse model of prolonged critical illness evoked by sepsis (cecal ligation and puncture); assay: Ex vivo force measurement of isolated extensor digitorum longus (EDL) muscle, mouse model of prolonged critical illness evoked by sepsis; type: in vivo, mice
Description: Mice experiment 2: We examined muscle force ex vivo in lean and diet-induced obese CLP mice. […] Mice were randomly allocated to “healthy control” or “CLP.” As in experiment 1 we had observed that muscle wasting occurred irrespective of feeding, we now only compared parenterally fed with pair-fed lean (n=17) and obese (n=15) healthy mice. Until day 5, 15/18 lean and 15/18 obese CLP mice survived. After 5 days, animals were deeply anesthetized and the m. extensor digitorum longus (EDL) was carefully dissected from both hind limbs for ex vivo muscle force measurements.
(§1) We studied the effect of subcutaneous administration of D,L-3-hydroxybutyrate sodium salt on muscle wasting and weakness in a validated mouse model of prolonged critical illness evoked by sepsis (cecal ligation and puncture followed by resuscitation and intensive medical care). The intervention was studied in the parenterally fed and in the fasted state.
Muscle function was quantified in isolated extensor digitorum longus (EDL) muscle. Critical illness in parenterally fed mice (PN) reduced the absolute maximal force generated by EDL to 57% of healthy controls (p<0.0001) (FIG. 9). […]
(§2) Muscle mass and function was quantified in isolated extensor digitorum longus (EDL) muscle. […]

[2] = tested on: mouse model of prolonged critical illness evoked by sepsis (cecal ligation and puncture); assay: Muscle wasting: weight of isolated skeletal muscles (EDL, tibialis anterior) in prolonged critically ill mice; type: in vivo; details: Example 7, first experiment, fasted critically ill mice
Procedure: To control for potential illness- or resuscitation-related changes in fluid content, dry weight of isolated tissues was obtained by a freeze-drying process. Myofiber cross-sectional area (CSA) was quantified on digital microscopy images of hematoxylin and eosin stained paraffin sections with in-house designed algorithms. In addition, the presence of myofiber degeneration, necrosis and inflammation was histologically evaluated. Triglyceride content of tissues was determined with a commercial colorimetric assay (triglyceride quantification kit, Abcam, Cambridge, UK).
as §1
Muscle wasting was evaluated by quantification of the dry weight of isolated skeletal muscles. Muscle weight of the EDL muscle decreased in all critically ill mice, irrespective of hydroxybutyrate treatment or nutritional regime (1.9±0.3 mg for PN, 2.1±0.3 mg for PN+3HB, and 2.0±0.4 mg for fasting+3HB as compared with 2.7±0.3 mg in healthy control mice; p<0.0001) (FIG. 11A). […]
as §2

[3] = tested on: mouse model of prolonged critical illness evoked by sepsis (cecal ligation and puncture); assay: 5-day mortality in prolonged critically ill mice; type: in vivo
Description: FIG. 10. Effect of 3-hydroxybutyrate injections on 5-day mortality in prolonged critically ill mice. Black line, healthy control mice (15/15 survivors); gray line, parenterally fed critically ill mice (17/20 survivors); dash dot line; parenterally fed critically ill mice receiving 3-hydroxybutyrate (17/21 survivors); dotted line, fasted critically ill mice receiving 3-hydroxybutyrate (14/22 survivors). [PN=parenteral nutrition; 3HB=3-hydroxybutyrate].
as §1
Muscle function was quantified in isolated extensor digitorum longus (EDL) muscle. Critical illness in parenterally fed mice (PN) reduced the absolute maximal force generated by EDL to 57% of healthy controls (p<0.0001) (FIG. 9). However, when parenterally fed critically ill mice received subcutaneous twice daily a bolus of 75 mg of D,L-3-hydroxybutyrate sodium salt (PN+3HB), maximal muscle force improved dramatically to 83% of healthy controls (p<0.0001) (FIG. 9).

Q: CC(O)CC(=O)O (racemic) [D,L-3-hydroxybutyrate sodium salt] was tested. Which “absolute maximal force generated by EDL, % of healthy controls” value ([1]; Example 7, first experiment, fasted critically ill mice (survivors), 3HB 75 mg subcutaneous bolus twice daily) did it give?
A: The value was 33%.

Q: What about the “effect on muscle weakness and muscle wasting (conclusion)” value ([1]; daily supplementation to parenterally fed mice, prolonged sepsis-induced critical illness) of the same molecule?
A: The value was “largely prevented muscle weakness but not muscle wasting”.

Q: What about the “dry weight of the EDL muscle” value ([2]; healthy controls 2.7±0.3 mg) of the same molecule?
A: Its value is 2.0 ± 0.4 mg.

Q: What about the “dry weight of the tibialis anterior muscle” value ([2]; healthy controls 12.4±1.3 mg) of the same molecule?
A: The value was 8.4 ± 1.8 mg.

Q: What about the 5-day survivors ([3]; fasted critically ill mice) of the same molecule?
A: The 5-day survivors was 14/22.

Q: What about the risk of death ([3]; fasted critically ill mice, 3HB 75 mg boluses twice daily) of the same molecule?
A: Its risk of death is “increased risk of death”.

Q: And the 5-day survivors ([3]; parenterally fed critically ill mice)?
A: Its 5-day survivors is 17/21.
